For assay [1], the target named is T1, High affinity nerve growth factor receptor (Homo sapiens, UniProt P04629). Briefly: Binding affinity to T292 residue of human recombinant TrkAIg2-NMR construct expressed in Escherichia coli by 1H-15N HSQC NMR spectroscopy.
The target in assay [2] is T1, High affinity nerve growth factor receptor. Briefly: Binding affinity to V305 residue of human recombinant TrkAIg2-NMR construct expressed in Escherichia coli by 1H-15N HSQC NMR spectroscopy.
The target is the same in assay [3]. Briefly: Binding affinity to C345 residue of human recombinant TrkAIg2-NMR construct expressed in Escherichia coli by 1H-15N HSQC NMR spectroscopy.
Assay [4] shares this target. The experiment in a line: Binding affinity to F303 residue of human recombinant TrkAIg2-NMR construct expressed in Escherichia coli by 1H-15N HSQC NMR spectroscopy.
Assay [5] has the same target. Briefly: Displacement of [125I]NGF from full length human TrkA expressed in HEKN3S cells by gamma counting based radioligand competition assay. Type of assay: cell-based.
Assay [6] has the same target. The experiment in a line: Antagonist activity at full length glycosylated human TrkA expressed in HEKN3S cells assessed as reduction in NGF-induced ERK 42/44 phosphorylation incubated for 5 mins by automated immunofluorescence assay. Type of assay: cell-based.

pEC50, pIC50, pKd: −log10 of the molar value.

T1 sequence (P04629 whole entry): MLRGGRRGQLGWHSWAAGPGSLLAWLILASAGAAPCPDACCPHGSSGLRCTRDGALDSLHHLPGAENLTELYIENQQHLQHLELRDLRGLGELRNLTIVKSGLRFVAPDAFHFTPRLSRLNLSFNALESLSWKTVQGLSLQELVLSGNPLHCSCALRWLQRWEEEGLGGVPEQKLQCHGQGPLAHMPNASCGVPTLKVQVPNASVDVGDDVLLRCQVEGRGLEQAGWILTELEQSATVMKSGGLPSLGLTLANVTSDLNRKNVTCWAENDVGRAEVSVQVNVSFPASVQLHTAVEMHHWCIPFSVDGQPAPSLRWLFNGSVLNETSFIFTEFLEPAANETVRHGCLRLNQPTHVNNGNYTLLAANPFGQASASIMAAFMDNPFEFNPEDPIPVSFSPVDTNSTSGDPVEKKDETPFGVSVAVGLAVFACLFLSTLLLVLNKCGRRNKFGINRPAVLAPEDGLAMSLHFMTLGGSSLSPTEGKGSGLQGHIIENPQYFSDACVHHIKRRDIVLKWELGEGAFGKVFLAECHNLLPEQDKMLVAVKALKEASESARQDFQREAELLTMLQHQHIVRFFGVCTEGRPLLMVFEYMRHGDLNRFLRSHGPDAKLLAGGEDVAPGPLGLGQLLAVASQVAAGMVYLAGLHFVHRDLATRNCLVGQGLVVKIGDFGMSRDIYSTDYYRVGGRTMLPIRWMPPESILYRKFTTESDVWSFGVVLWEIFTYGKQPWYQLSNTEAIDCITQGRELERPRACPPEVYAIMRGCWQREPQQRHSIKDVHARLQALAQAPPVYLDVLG

With `CN(C)CCC=C1c2ccccc2CCc2ccccc21` [AMITRIPTYLINE], the negative logarithm of the Kd (pKd) in assay [1] is 2.74; in assay [2], 2.68; in assay [3], 2.68; in assay [4], 2.66. The same molecule showed a pIC50 in assay [5] of 4.22. Also, the pEC50 in assay [6] was 4.07.

The values above are taken from ChEMBL document CHEMBL3392975, “Design and nuclear magnetic resonance (NMR) structure determination of the second extracellular immunoglobulin tyrosine kinase A (TrkAIg2) domain construct for binding site elucidation in drug discovery” (J Med Chem, 2015).
